RP-LC retention time data for 80 molecules are collected here from the METLIN SMRT retention time set (Domingo-Almenara et al. 2019).

The data set is described as follows: gradient 5% acetonitrile 3 min, to 50% in 2 min, to 85% in 15 min, held 3 min, 100 µL/min. Particulars: column: Zorbax Extend-C18 2.1 x 50 mm; eluents: water / acetonitrile, 0.1% formic acid. Summed up:
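Over 3 months, pure standards in mixtures of ~100 molecules were run by HPLC coupled to a quadrupole time-of-flight mass spectrometer in positive and negative ionization mode. The column was a Zorbax Extend-C18 (2.1 × 50 mm, 1.8 μm) at 100 μL/min, eluted with water and acetonitrile each holding 0.1% formic acid, with 40 μL dead and 900 μL dwell volumes. Retention time was determined from adduct peaks chosen by software and checked manually.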
Molecule `CNC(=O)C1CCCN(C(=O)Nc2ccc(NC(=O)Nc3ccc(C)cc3)cc2)C1` (stereo not given) came in with an RP-LC retention time of 883 s.

Molecule `COC(=O)c1cc(OCC(=O)Nc2ccc3c(c2)OCO3)c2cc(F)ccc2n1` returned an RP-LC retention time of 778 s.

Take `Cc1ccc(NC(=O)C2(C)Oc3cccnc3N(C(C)C)C2=O)c(C)c1` (stereo not given): the RP-LC retention time was 1040 s.

Molecule `COc1ccccc1NC(=O)Cn1cnc2nc(N3CCCC(C(=O)NC(C)C)C3)sc2c1=O` (stereo not given) showed an RP-LC retention time of 688 s.

Take `CCc1ccc(-c2nc(-c3ccc4c(c3)N(CC)C(=O)CO4)no2)cc1`: the RP-LC retention time was 1320 s.

In turn, `CCOC(=O)c1cc(C2CC2)nc2c1c(=O)n(Cc1ccc(OC)cc1)c(=O)n2C` showed an RP-LC retention time of 1170 s.

`N#CC1(C(=O)Nc2ccc(F)c(F)c2)CC1` showed an RP-LC retention time of 760 s.

Regarding `Cc1nc2ccc(Cl)cn2c(=O)c1NC(=O)Cc1ccc(-c2ccccc2)cc1`, the RP-LC retention time was determined as 775 s.

For `c1cncc(CN2CC(Oc3ccc(-c4noc(-c5ccncc5)n4)cc3)C2)c1`, the RP-LC retention time stood at 813 s.

Take `CN(CCCNC(=O)c1ccc2c(c1)NC(=O)C1CCCCN21)Cc1ccccc1` (stereo not given): the RP-LC retention time was 617 s.

Consider `CCN1CCN(C(=O)C2CCCN(S(=O)(=O)c3ccc4c(ccn4CC)c3)C2)CC1` (stereo not given), for which the RP-LC retention time was 660 s.

Consider `COc1ccc(NC(=O)c2cn(-c3cc(N(C)C)ncn3)cn2)c(OC)c1`, for which the RP-LC retention time was determined as 842 s.

For `O=C(NCc1cc(F)cc(F)c1)C1CCCN(c2ccc(-c3ccccc3)nn2)C1` (stereo not given), the RP-LC retention time was 735 s.

Regarding `COc1cc(Cl)c(C)cc1NC(=O)CN1C(=O)NC2(CCCCC2)C1=O`, the RP-LC retention time worked out at 884 s.

Molecule `Cc1noc(CNC(=O)CSCc2ccccc2)n1` had an RP-LC retention time of 684 s.

`CC(C)c1ccc(NC(=O)C2CCCN(c3ncnc4c3oc3ccccc34)C2)cc1` (stereo not given) had an RP-LC retention time of 976 s.

Consider `CCCn1cnc2cc(CNC(=O)c3ccc(OC)c(OC)c3)ccc21`, for which the RP-LC retention time was determined as 606 s.

For `CC(C)NC(=O)c1ccc(OCC2CCCN2C(=O)c2cc(F)ccc2Cl)cc1` (stereo not given), the RP-LC retention time worked out at 881 s.

The molecule `CCc1nncn1C1CCN(S(=O)(=O)c2ccc(C)c(Cl)c2)CC1` returned an RP-LC retention time of 754 s.

Take `NP(=O)(Oc1c2occc2cc2ccc(=O)oc12)N(CCCl)CCCl` (stereo not given): the RP-LC retention time was determined as 738 s.

As to `Cn1nc(C(=O)N2CCC3(CC2)N=C(c2cccc(Br)c2)NO3)c2ccccc21`, the RP-LC retention time amounted to 923 s.

Consider `COc1cn(CC(=O)NCc2ccc(F)cc2)c(CN2CCC(C)CC2)cc1=O`, for which the RP-LC retention time was found to be 550 s.

On to `COc1ccccc1-c1nc(Cn2ccnc2)no1`, for which the RP-LC retention time is 580 s.

`Cc1ccc2nc(N3CCN(C)CC3)c(-c3noc(-c4ccccc4)n3)cc2c1` returned an RP-LC retention time of 715 s.

As to `Clc1ccccc1-c1nnc(SCc2cccnc2)o1`, the RP-LC retention time is 621 s.

As to `CN1C(=O)c2cc(C(=O)NCCc3ccccc3)nn2CC1(C)C(=O)NCc1ccc(F)cc1` (stereo not given), the RP-LC retention time worked out at 768 s.

As for `O=C(N[C@H]1C[C@@H]2C[C@H]1CN2C(=O)Nc1ccc2c(c1)OCO2)c1cccs1`, the RP-LC retention time was 623 s.

`CCOc1ccc(-c2[nH]ncc2CNS(=O)(=O)Cc2ccc(C)cc2)cc1` had an RP-LC retention time of 853 s.

As for `COC(=O)c1scc(-c2ccccc2)c1S(=O)(=O)N1CCN(c2ccccn2)CC1`, the RP-LC retention time was 729 s.

In the case of `COc1ncccc1CNC(=O)c1sccc1C`, the RP-LC retention time was 746 s.

`Cc1sc2ccn(C)c(=O)c2c1C(=O)NCc1ccc(N2CCOCC2)cc1` displayed an RP-LC retention time of 647 s.

For the molecule `O=C(NCCCN1CCCCC1)C1=C2CCCN2c2ccc(F)cc2S1(=O)=O`, the RP-LC retention time is 606 s.

`O=C(NC1CC1)c1ccc2c(c1)CCCN2S(=O)(=O)c1ccc(Cl)cc1` displayed an RP-LC retention time of 896 s.

`Cc1ccc(NC(=O)N2CCC(N3CCN(Cc4ccccc4)C3=O)CC2)cc1Cl`: the RP-LC retention time turned out to be 938 s.

The molecule `Cc1nc2c(C(=O)NCCN(C)C)cnn2c(C)c1Cc1ccccc1Cl` displayed an RP-LC retention time of 674 s.

`Cc1[nH]c(=O)[nH]c(=O)c1CC(=O)N1CCN(c2cccc(Cl)c2Cl)CC1` displayed an RP-LC retention time of 654 s.

As to `CCOCCCNC(=O)N1CC(Oc2ccc(-c3nc(C)no3)cc2)C1`, the RP-LC retention time turned out to be 724 s.

`O=C(C1CCN(c2nc3ccc(-c4ccsc4)nc3s2)CC1)N1CCCCC1` gave an RP-LC retention time of 911 s.

In turn, `COc1ccc2c(c1)c(CN1CCC(C(=O)NC3CCCCCC3)CC1)cn2C` yielded an RP-LC retention time of 712 s.

`CCOc1cc(=O)n2c(c1C(=O)Nc1cc(F)ccc1Cl)CCCC2` yielded an RP-LC retention time of 822 s.

`Cc1ccc(-n2nc(OCC(=O)Nc3cc(F)ccc3F)ccc2=O)cc1C` displayed an RP-LC retention time of 866 s.

`Cc1nc(-c2noc(-c3ccncc3)n2)cn1CC(=O)NCc1cccs1`: the RP-LC retention time was 640 s.

`CN(CCc1noc(-c2ccc(Cl)cc2)n1)C(=O)NCc1ccccc1` had an RP-LC retention time of 932 s.

In the case of `O=C(COc1ccccc1)Nc1nnc(C2=COCCO2)o1`, the RP-LC retention time was 651 s.

The molecule `CCCS(=O)(=O)N1CCC(Cc2nc(-c3ccncc3)n[nH]2)C1` (stereo not given) displayed an RP-LC retention time of 576 s.

Molecule `Cc1nnc(-c2ccncc2)o1` came in with an RP-LC retention time of 547 s.

As to `C[C@H]1CN(C(=O)c2ccc(C#N)cc2)C[C@@H]1c1nc(-c2cccnc2)no1`, the RP-LC retention time turned out to be 717 s.

`O=C1CCCc2cc(S(=O)(=O)N3CCN(c4cccc(Cl)c4)CC3)ccc2N1` registered an RP-LC retention time of 928 s.

In the case of `CCCCN1C(=O)C(C)(C(=O)NCc2ccccc2C)Oc2cccnc21` (stereo not given), the RP-LC retention time was found to be 1050 s.

The molecule `O=C(c1cccc2c1CCN2C(=O)c1ccc(F)cc1)N1CCCCC1` yielded an RP-LC retention time of 854 s.

For `Cc1ccn2cc(-c3ccc(NC(=O)c4ccc(F)cc4)cc3)nc2n1`, the RP-LC retention time is 648 s.

The molecule `CN(C)c1nc2cc(C(=O)N3CCOCC3)sc2n1-c1ccccc1` returned an RP-LC retention time of 614 s.

Turning to `CCc1ccc(-n2nc(CO)c(C(=O)NC3CCCC3)n2)cc1`, the RP-LC retention time was 1120 s.

In turn, `Cc1ccc2c(Nc3ccc(Br)cc3)c(C(=O)N3CCOCC3)cnc2n1` yielded an RP-LC retention time of 608 s.

The molecule `CC1(C(=O)NC2CCCCCCC2)CN(S(C)(=O)=O)CC(=O)N1Cc1ccc(Cl)cc1` (stereo not given) came in with an RP-LC retention time of 993 s.

In the case of `COCCC(=O)NC1CCN(C2=NS(=O)(=O)C(c3ccc(C)cc3)=C2C)CC1`, the RP-LC retention time worked out at 708 s.

The molecule `COc1cccc(Cn2nc3c(S(=O)(=O)N4CCc5ccccc5C4)cccn3c2=O)c1` had an RP-LC retention time of 943 s.

Turning to `CC(C)CC(=O)N1CC(c2nc(-c3ccc(F)cc3)no2)C2(CCOCC2)C1` (stereo not given), the RP-LC retention time stood at 926 s.

Molecule `O=C(CCn1nnc2cc(-c3noc(-c4ccc(Cl)cc4)n3)ccc21)N1CCOCC1` returned an RP-LC retention time of 936 s.

`O=C(NCc1ccccc1C(F)(F)F)C1CCN(c2cc(N3CCOCC3)ncn2)CC1` displayed an RP-LC retention time of 670 s.

Turning to `Cc1nnc(-c2ccc3ccn(CC(=O)Nc4cccc(CN5CCCC5)c4)c3c2)o1`, the RP-LC retention time turned out to be 610 s.

In turn, `CN1C(=O)[C@H]2CN(Cc3ccccc3Cl)C[C@H]2C1=O` registered an RP-LC retention time of 600 s.

In turn, `COc1ccc(-c2n[nH]c3c2C(c2cccc(O)c2)NC3=O)cc1` (stereo not given) showed an RP-LC retention time of 654 s.

Consider `Cc1nn2c(CNC(=O)c3ccc(C(F)(F)F)cc3)c(C)nc2s1`, for which the RP-LC retention time turned out to be 692 s.

On to `COc1ccc(C(C)NC(=O)CCc2ccc3c(ccn3C)c2)cc1OC` (stereo not given), for which the RP-LC retention time stood at 819 s.

Consider `CSc1ccccc1C(=O)Nc1nc(CN2CCc3ccccc3C2)cs1`, for which the RP-LC retention time was found to be 594 s.

Turning to `Cc1ccc(OCC(O)CN2CCN(CC(O)COC(C)C)CC2)c(C(C)(C)C)c1` (stereo not given), the RP-LC retention time turned out to be 607 s.

`CCc1cc(C(=O)Nc2ccc(OC)cc2)nc2ccnn12` had an RP-LC retention time of 917 s.

For `O=C(O)c1cncc(NS(=O)(=O)c2ccc3c(c2)OCCO3)c1`, the RP-LC retention time turned out to be 611 s.

`Cc1cc(C)n(-c2cc(Nc3ccc(F)cc3)ncn2)n1` returned an RP-LC retention time of 1010 s.

Molecule `CCCCC(=O)Nc1ccc(OCc2cc(C(=O)NC(C)C)no2)cc1` displayed an RP-LC retention time of 827 s.

On to `CC(C)Cn1c(=O)c2cc(C(=O)NCc3cc(F)ccc3F)nn2c2ccccc21`, for which the RP-LC retention time is 1030 s.

`CCOc1ccc(C2c3[nH]c4ccccc4c3CCN2C(=O)C2CCC2)cc1` (stereo not given) yielded an RP-LC retention time of 1210 s.

In the case of `CCOC(=O)c1ccc(NC(=O)Cn2nc3c(Oc4ccccc4)nccn3c2=O)cc1`, the RP-LC retention time was 852 s.

For `CCC(=O)N1CCCn2nc(-c3cccnc3)cc2C1`, the RP-LC retention time was 562 s.

Turning to `Cn1nccc1C(=O)N1CCC(c2noc(-c3ccccc3)n2)C1` (stereo not given), the RP-LC retention time amounted to 755 s.

In turn, `CCN1C(=O)COc2ccc(-c3nc(NC(=O)c4ccc(Cl)cc4)sc3C)cc21` had an RP-LC retention time of 1130 s.

Consider `COc1ccc(-c2nnc(COc3cccc(NC(=O)c4nn(C)c5ccccc45)c3)o2)cc1`, for which the RP-LC retention time was 1040 s.

Take `Cc1ccc(-c2nc(C3CC(=O)N(c4ccc(F)c(Cl)c4)C3)no2)cc1C` (stereo not given): the RP-LC retention time worked out at 1090 s.

As to `Nc1cc(C2CCN(C(=O)Cc3c(F)cccc3Cl)CC2)no1`, the RP-LC retention time worked out at 723 s.
